From patent US20160024071A1, “INHIBITORS OF LRRK2 KINASE ACTIVITY” (ELAN PHARMACEUTICALS, LLC., priority 2013, published 2016)
pIC50: −log10 of the molar value.

These compounds were tested against T1, recombinant GST-LRRK2 (wild-type) (Homo sapiens, UniProt Q5S007) (assay: LRRK2 TR-FRET peptide assay (wild-type)). Settings: 100 μM ATP, 100 nM biotin-LRRKtide, 10 nM kinase, 60 min room temperature.
T1 construct: GST (N); purchased Invitrogen
Assay type: biochemical
Protocol: Compounds as described herein (compounds of Formula I, e.g., compounds of the above Examples) are tested for their in vitro kinase activities using various LRRK2 (including LRRK2 G2019S mutant) assays. For example, assays were performed in a total volume of 20 μL using the same kinase reaction buffer (50 mM HEPES pH 7.5, 10 mM MgCl2, 1 mM EGTA, 2 mM DTT and 0.01% Tween-20) for wild-type or G2019S mutant LRRK2. Serially diluted compounds (1% DMSO as co-solvent) were pre-incubated with recombinant GST-LRRK2 (wild-type, or G2019S mutant, Invitrogen) for 15 minutes at room temperature in 384-well Corning black plates. Mixtures of ATP and biotin-LRRKtide substrate (biotin-RLGRDKYKTLRQIRQ) were added to the wells at a final concentration of 100 μM ATP and 100 nM substrate, with final kinase concentration of 10 nM. The kinase reactions were carried out at room temperature for 60 minutes, then the reaction was stopped with the addition of 10 μL/well of stop/detection buffer (25 mM HEPES pH 7.5, 66 mM EDTA, 0.8 M KF and 0.1% BSA) that contains streptavidin-XL665 (12.5 nM) and europium-conjugated phospho-specific antibody (2 nM). The plates were read 1 hour later and the time-resolved fluorescence (665 nm to 615 nm ratio) measured using an Envision reader. The inhibition of each well was calculated using the control and background readings for that plate. IC50 values were determined from dose-response curves using eight concentrations from the serial dilution of the test compounds.

T1 sequence (Q5S007 whole entry): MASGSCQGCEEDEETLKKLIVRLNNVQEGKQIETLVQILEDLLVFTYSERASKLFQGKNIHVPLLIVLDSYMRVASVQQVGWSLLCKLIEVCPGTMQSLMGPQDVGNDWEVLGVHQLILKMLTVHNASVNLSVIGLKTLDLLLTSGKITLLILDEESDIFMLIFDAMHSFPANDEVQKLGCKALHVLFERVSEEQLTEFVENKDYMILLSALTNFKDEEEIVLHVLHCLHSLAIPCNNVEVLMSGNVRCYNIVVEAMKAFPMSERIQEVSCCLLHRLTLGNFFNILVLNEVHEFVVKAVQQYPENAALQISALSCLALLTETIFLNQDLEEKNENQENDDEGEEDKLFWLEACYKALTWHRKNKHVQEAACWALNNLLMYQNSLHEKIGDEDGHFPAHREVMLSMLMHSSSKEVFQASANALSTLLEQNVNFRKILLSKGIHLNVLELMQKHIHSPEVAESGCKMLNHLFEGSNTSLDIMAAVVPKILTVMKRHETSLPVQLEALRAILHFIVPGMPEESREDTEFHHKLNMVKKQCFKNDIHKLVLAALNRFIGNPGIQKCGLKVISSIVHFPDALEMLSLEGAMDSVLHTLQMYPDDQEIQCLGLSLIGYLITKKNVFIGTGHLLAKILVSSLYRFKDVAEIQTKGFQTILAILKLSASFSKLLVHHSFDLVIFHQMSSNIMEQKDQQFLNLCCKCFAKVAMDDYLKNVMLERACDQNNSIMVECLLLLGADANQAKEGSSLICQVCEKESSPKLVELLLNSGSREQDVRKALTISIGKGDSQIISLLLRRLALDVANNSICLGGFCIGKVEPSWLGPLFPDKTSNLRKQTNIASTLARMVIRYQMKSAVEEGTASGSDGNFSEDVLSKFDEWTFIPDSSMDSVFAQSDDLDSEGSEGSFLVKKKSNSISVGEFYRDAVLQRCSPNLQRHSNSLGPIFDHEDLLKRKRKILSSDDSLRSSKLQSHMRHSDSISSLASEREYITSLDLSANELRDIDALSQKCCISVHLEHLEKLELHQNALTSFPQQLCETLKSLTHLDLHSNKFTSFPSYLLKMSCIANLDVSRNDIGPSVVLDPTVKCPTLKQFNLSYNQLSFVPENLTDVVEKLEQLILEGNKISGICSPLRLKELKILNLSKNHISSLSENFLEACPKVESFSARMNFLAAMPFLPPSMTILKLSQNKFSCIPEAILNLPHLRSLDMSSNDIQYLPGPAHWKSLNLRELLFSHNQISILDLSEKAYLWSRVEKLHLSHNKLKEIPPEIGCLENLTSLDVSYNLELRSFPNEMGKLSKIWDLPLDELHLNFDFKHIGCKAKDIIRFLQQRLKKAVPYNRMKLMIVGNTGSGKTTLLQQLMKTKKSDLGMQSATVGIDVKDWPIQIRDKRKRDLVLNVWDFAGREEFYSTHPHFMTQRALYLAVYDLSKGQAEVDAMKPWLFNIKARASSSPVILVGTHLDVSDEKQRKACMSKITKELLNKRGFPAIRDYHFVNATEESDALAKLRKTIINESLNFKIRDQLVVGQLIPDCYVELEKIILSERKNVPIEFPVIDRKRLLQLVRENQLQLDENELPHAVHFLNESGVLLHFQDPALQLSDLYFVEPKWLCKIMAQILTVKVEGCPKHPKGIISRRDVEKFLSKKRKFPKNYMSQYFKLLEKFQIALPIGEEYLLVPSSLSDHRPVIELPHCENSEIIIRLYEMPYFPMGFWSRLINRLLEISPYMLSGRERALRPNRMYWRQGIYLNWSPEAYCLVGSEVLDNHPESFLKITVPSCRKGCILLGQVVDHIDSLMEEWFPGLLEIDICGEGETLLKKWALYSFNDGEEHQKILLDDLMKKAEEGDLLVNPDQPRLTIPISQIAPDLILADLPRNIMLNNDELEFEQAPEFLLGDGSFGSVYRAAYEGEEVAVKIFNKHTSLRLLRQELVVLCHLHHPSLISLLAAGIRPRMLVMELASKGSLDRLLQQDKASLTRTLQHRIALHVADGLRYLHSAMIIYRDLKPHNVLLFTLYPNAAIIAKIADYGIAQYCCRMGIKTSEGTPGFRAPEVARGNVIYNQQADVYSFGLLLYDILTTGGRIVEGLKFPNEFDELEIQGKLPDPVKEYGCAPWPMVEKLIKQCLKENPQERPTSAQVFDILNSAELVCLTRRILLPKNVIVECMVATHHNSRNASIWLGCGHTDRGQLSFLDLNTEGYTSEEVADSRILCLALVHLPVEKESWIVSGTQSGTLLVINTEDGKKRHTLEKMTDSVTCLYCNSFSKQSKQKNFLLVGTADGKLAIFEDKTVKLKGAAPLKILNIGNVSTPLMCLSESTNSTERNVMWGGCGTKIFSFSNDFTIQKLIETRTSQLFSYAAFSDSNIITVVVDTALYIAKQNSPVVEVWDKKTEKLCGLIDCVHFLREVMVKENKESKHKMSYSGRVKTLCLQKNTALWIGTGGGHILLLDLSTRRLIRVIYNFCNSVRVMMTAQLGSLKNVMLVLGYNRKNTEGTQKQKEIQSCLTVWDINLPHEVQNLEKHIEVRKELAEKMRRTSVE

In order of falling pIC50:
1. O=C(NN=C1SCC(=O)N1c1ccc(F)cc1F)c1ccc(Cl)s1 [Compound 1-12, 5-chloro-N′-(3-(2,4-difluorophenyl)-4-oxothiazolidin-2-ylidene)thiophene-2-carbohydrazide]  9.30
2. O=C(NN=C1SCC(=O)N1c1ccccc1F)c1ccc(Cl)s1 [Compound 1-10, 5-chloro-N′-(3-(2-fluorophenyl)-4-oxothiazolidin-2-ylidene)thiophene-2-carbohydrazide]  9.30
3. O=C(NN=C1SCC(=O)N1c1ccccc1)c1ccc(Cl)s1 [Compound 1-6, 5-chloro-N′-(4-oxo-3-phenylthiazolidin-2-ylidene)thiophene-2-carbohydrazide]  9.05
4. O=C(NN=C1SCC(=O)N1c1ccc(F)cc1)c1ccc(Cl)s1 [Compound 1-11, 5-chloro-N′-(3-(4-fluorophenyl)-4-oxothiazolidin-2-ylidene)thiophene-2-carbohydrazide]  9.05
5. O=C(NN=C1SCC(=O)N1c1cccc(F)c1)c1ccc(Cl)s1 [Compound 1-8, 5-chloro-N′-(3-(3-fluorophenyl)-4-oxothiazolidin-2-ylidene)thiophene-2-carbohydrazide]  8.96
6. CC1SC(=NNC(=O)c2ccc(Cl)s2)N(c2ccccc2)C1=O (stereo not drawn) [Compound 1-7, 5-chloro-N′-(5-methyl-4-oxo-3-phenylthiazolidin-2-ylidene)thiophene-2-carbohydrazide]  7.96
7. O=C(NN=C1SCC(=O)N1Cc1ccccc1)c1ccc(Cl)s1 [Compound 1-15, N′-(3-benzyl-4-oxothiazolidin-2-ylidene)-5-chlorothiophene-2-carbohydrazide]  7.89
8. O=C(NN=C1SCCN1c1ccccc1)c1ccc(Cl)s1 [Compound 2-19, 5-chloro-N′-(3-phenylthiazolidin-2-ylidene)thiophene-2-carbohydrazide]  7.29
9. O=C(NN=C1SCC(=O)N1c1cccc(C(F)(F)F)c1)c1ccc(Cl)s1 [Compound 1-16, 5-chloro-N′-(4-oxo-3-(3-(trifluoromethyl)phenyl)thiazolidin-2-ylidene)thiophene-2-carbohydrazide]  6.95
10. CC(C)C1SC(=NNC(=O)c2ccc(Cl)s2)N(c2ccccc2)C1=O (stereo not drawn) [Compound 1-13, 5-chloro-N′-(5-isopropyl-4-oxo-3-phenylthiazolidin-2-ylidene)thiophene-2-carbohydrazide]  6.68
11. CC1(C)SC(=NNC(=O)c2ccc(Cl)s2)N(c2ccccc2)C1=O [Compound 1-14, 5-chloro-N′-(5,5-dimethyl-4-oxo-3-phenylthiazolidin-2-ylidene)thiophene-2-carbohydrazide]  6.48
12. COc1ccccc1N1C(=O)CSC1=NNC(=O)c1ccc(Cl)s1 [Compound 1-9, 5-chloro-N′-(3-(2-methoxyphenyl)-4-oxothiazolidin-2-ylidene)thiophene-2-carbohydrazide]  5.93
